Measured values published in patent US12162872B2, “Cycloalkylurea derivative” (Sumitomo Pharma Co., Ltd., priority 2019, dated 2024).

Each molecule was assayed against T1, Human orexin receptor type 2 (Homo sapiens, UniProt O43614) (assay: Test 1: Evaluation of agonist activity for orexin receptor type 2 (aequorin luminescence, intracellular calcium mobilization in CHO cells)). Conditions: relative percentage of luminescence for the luminescence (100%) of Orexin A (100 pM); CHO cells transiently expressing human orexin receptor type 2 and apoaequorin; Orexin A Lot. 641114.
T1 construct: expressed in transfected cells; host or cells: CHO cells (transient expression)
T1 sequence (O43614 1-444): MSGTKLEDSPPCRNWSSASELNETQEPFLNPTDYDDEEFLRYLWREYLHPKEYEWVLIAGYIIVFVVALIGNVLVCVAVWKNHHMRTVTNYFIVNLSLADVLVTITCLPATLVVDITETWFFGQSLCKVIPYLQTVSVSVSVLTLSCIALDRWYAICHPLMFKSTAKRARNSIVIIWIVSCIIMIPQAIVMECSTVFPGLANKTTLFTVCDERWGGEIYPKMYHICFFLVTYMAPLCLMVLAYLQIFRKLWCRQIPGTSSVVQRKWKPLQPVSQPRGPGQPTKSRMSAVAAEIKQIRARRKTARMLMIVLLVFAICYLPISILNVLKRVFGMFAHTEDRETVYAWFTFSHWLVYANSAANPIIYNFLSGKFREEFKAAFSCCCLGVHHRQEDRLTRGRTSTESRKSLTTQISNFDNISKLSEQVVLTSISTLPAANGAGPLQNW
Format: cell-based
Procedure, shortened: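 CHO cells transiently expressing human OX2 receptor and apoaequorin, seeded 16-22 h, loaded with 1 μM coelenterazine hcp for 2 h at room temperature. Compound added in Hanks/20 mM HEPES/0.1% BSA, 0.1% DMSO final, and calcium luminescence measured. Activity expressed as percent of the 100 pM Orexin A response.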

Structure (SMILES) | agonist activity (%)
CC(C)N1CCN([C@H]2CCCC(F)(F)[C@@H]2NC(=O)N2CCC(c3ncccn3)CC2)CC1 (racemic) [Example 36, rac-N-{(1R,6S)-2,2-difluoro-6-[4-(propan-2-yl)piperazin-1-yl]cyclohexyl}-4-(pyrimidin-2-yl)piperidine-1-carboxamide] | 114
Cc1ccc(C2(C)CCN(C(=O)N[C@@H]3[C@@H](N4CCN(C(C)C)CC4)CCCC3(F)F)CC2)c(F)c1 [Example 56, N-{(1R,6S)-2,2-difluoro-6-[4-(propan-2-yl)piperazin-1-yl]cyclohexyl}-4-(2-fluoro-4-methylphenyl)-4-methylpiperidine-1-carboxamide] | 140
CC(C)N1CCN([C@H]2CCCC(F)(F)[C@@H]2NC(=O)N2CCC(C3CCCCC3)CC2)CC1 (racemic) [Example 35, rac-4-cyclohexyl-N-{(1R,6S)-2,2-difluoro-6-[4-(propan-2-yl)piperazin-1-yl]cyclohexyl}piperidine-1-carboxamide] | 165
CC(C)N1CCN([C@H]2CCCC(F)(F)[C@@H]2NC(=O)N2CCC(c3ccc(C(F)(F)F)cn3)CC2)CC1 (racemic) [Example 55, rac-N-{(1R,6S)-2,2-difluoro-6-[4-(propan-2-yl)piperazin-1-yl]cyclohexyl}-4-[5-(trifluoromethyl)pyridin-2-yl]piperidine-1-carboxamide] | 95
Cc1ccc(C2(C)CCN(C(=O)N[C@@H]3[C@@H](N4CCN(C(C)C)CC4)CCCC3(F)F)CC2)cc1 [Example 49, N-{(1R,6S)-2,2-difluoro-6-[4-(propan-2-yl)piperazin-1-yl]cyclohexyl}-4-methyl-4-(4-methylphenyl)piperidine-1-carboxamide] | 151
CC(C)N1CCN([C@H]2CCCC(F)(F)[C@@H]2NC(=O)N2CCC(F)(c3ccccn3)CC2)CC1 (racemic) [Example 46, rac-N-{(1R,6S)-2,2-difluoro-6-[4-(propan-2-yl)piperazin-1-yl]cyclohexyl}-4-fluoro-4-(pyridin-2-yl)piperidine-1-carboxamide] | 136
Cc1ccc(C2(C)CCN(C(=O)N[C@@H]3[C@@H](N4CC5CC(C4)N5C(C)C)CCCC3(F)F)CC2)cc1 [Example 61, N-{(1R,6S)-2,2-difluoro-6-[6-(propan-2-yl)-3,6-diazabicyclo[3.1.1]heptan-3-yl]cyclohexyl}-4-methyl-4-(4-methylphenyl)piperidine-1-carboxamide] | 169
CC(C)N1CCN([C@H]2CCCC(F)(F)[C@@H]2NC(=O)N2CCC(C)(c3noc(CC(F)(F)F)n3)CC2)CC1 [Example 70, N-{(1R,6S)-2,2-difluoro-6-[4-(propan-2-yl)piperazin-1-yl]cyclohexyl}-4-methyl-4-[5-(2,2,2-trifluoroethyl)-1,2,4-oxadiazol-3-yl]piperidine-1-carboxamide] | 141
CCN1CCN([C@H]2CCCC[C@@H]2NC(=O)N2CCC(c3ccc(C)cc3)CC2)CC1 (racemic) [Example 17, rac-N-[(1S,2S)-2-(4-Ethylpiperazin-1-yl)cyclohexyl]-4-(4-methylphenyl)piperidine-1-carboxamide] | 72
CC(C)N1CCN([C@H]2CCCC(F)(F)[C@@H]2NC(=O)N2CCC(C)(c3noc(C4CC4)n3)CC2)CC1 (racemic) [Example 19, rac-4-(5-Cyclopropyl-1,2,4-oxadiazol-3-yl)-N-{(1R,6S)-2,2-difluoro-6-[4-(propan-2-yl)piperazin-1-yl]cyclohexyl}-4-methylpiperidine-1-carboxamide] | 167
CC(C)N1CCN([C@H]2CCCC(F)(F)[C@@H]2NC(=S)N2CCC(C)(c3noc(C4CC4)n3)CC2)CC1 (racemic) [Example 79, rac-4-(5-cyclopropyl-1,2,4-oxadiazol-3-yl)-N-{(1R,6S)-2,2-difluoro-6-[4-(propan-2-yl)piperazin-1-yl]cyclohexyl}-4-methylpiperidine-1-carbothioamide] | 191
CC(C)N1C[C@@H](O[C@H]2CCCC(F)(F)[C@@H]2NC(=O)N2CCC(C)(c3noc(C4CC4)n3)CC2)C(F)(F)C1 [Example 76, 4-(5-cyclopropyl-1,2,4-oxadiazol-3-yl)-N-[(1R,6S)-6-{[(3R)-4,4-difluoro-1-(propan-2-yl)pyrrolidin-3-yl]oxy}-2,2-difluorocyclohexyl]-4-methylpiperidine-1-carboxamide] | 145
CC(C)N1CC2CCC(C1)N2[C@H]1CCCC(F)(F)[C@@H]1NC(=O)N1CCC(C)(c2noc(C3CC3)n2)CC1 [Example 62, 4-(5-cyclopropyl-1,2,4-oxadiazol-3-yl)-N-{(1R,6S)-2,2-difluoro-6-[3-(propan-2-yl)-3,8-diazabicyclo[3.2.1]octan-8-yl]cyclohexyl}-4-methylpiperidine-1-carboxamide] | 174
CC(C)N1CCN([C@H]2CCCC(F)(F)[C@@H]2NC(=O)N2CCC(C)(c3nc4ccccc4o3)CC2)CC1 (racemic) [Example 21, rac-4-(1,3-benzoxazol-2-yl)-N-{(1R,6S)-2,2-difluoro-6-[4-(propan-2-yl)piperazin-1-yl]cyclohexyl}-4-methylpiperidine-1-carboxamide] | 153

The next lines start with the values.

agonist activity (%) | Structure (SMILES)
146 | Cc1cnc(C2CCN(C(=O)N[C@@H]3[C@@H](N4CCN(C(C)C)CC4)CCCC3(F)F)CC2)nc1 (racemic) [Example 54, rac-N-{(1R,6S)-2,2-difluoro-6-[4-(propan-2-yl)piperazin-1-yl]cyclohexyl}-4-(5-methylpyrimidin-2-yl)piperidine-1-carboxamide]
213 | Cc1nc(C2(C)CCN(C(=O)O[C@@H]3[C@@H](N4CCN(C(C)C)CC4)CCCC3(F)F)CC2)no1 (racemic) [Example 10, rac-(1R,6S)-2,2-difluoro-6-[4-(propan-2-yl)piperazin-1-yl]cyclohexyl 4-methyl-4-(5-methyl-1,2,4-oxadiazol-3-yl)piperidine-1-carboxylate]
142 | CC(C)N1CCN([C@H]2CCCC(F)(F)[C@@H]2NC(=O)N2CCC(c3ccccc3)CC2)CC1 (racemic) [Example 38, rac-N-{(1R,6S)-2,2-difluoro-6-[4-(propan-2-yl)piperazin-1-yl]cyclohexyl}-4-phenylpiperidine-1-carboxamide]
62 | CC(C)c1ccc(C2=CCCCC2NC(=O)N2CCC(C)(c3cc(C4CC4)on3)CC2)cn1 (racemic) [Example 15, rac-4-(5-cyclopropyl-1,2-oxazol-3-yl)-4-methyl-N-{2-[6-(propan-2-yl)pyridin-3-yl]cyclohex-2-en-1-yl}piperidine-1-carboxamide]
204 | CC(C)N1CC[C@@H](O[C@H]2CCCC(F)(F)[C@@H]2NC(=O)N2CCC(C)(c3noc(C4CC4)n3)CC2)C1 [Example 64, 4-(5-cyclopropyl-1,2,4-oxadiazol-3-yl)-N-[(1R,6S)-2,2-difluoro-6-{[(3R)-1-(propan-2-yl)pyrrolidin-3-yl]oxy}cyclohexyl]-4-methylpiperidine-1-carboxamide]
75 | CC(C)N1CCN([C@H]2[C@H](NC(=O)N3CCC(C)(c4noc(C5CC5)n4)CC3)CCCC2(F)F)CC1 (racemic) [Example 7, rac-4-(5-cyclopropyl-1,2,4-oxadiazol-3-yl)-N-{(1R,2S)-3,3-difluoro-2-[4-(propan-2-yl)piperazin-1-yl]cyclohexyl}-4-methylpiperidine-1-carboxamide]
178 | CC(C)N1CCN([C@H]2CCCC(F)(F)[C@@H]2NC(=S)N2CCC(C)(c3noc(C4CC4)n3)CC2)CC1 [Example 80, 4-(5-cyclopropyl-1,2,4-oxadiazol-3-yl)-N-{(1R,6S)-2,2-difluoro-6-[4-(propan-2-yl)piperazin-1-yl]cyclohexyl}-4-methylpiperidine-1-carbothioamide]
175 | Cc1ccc(C2(C)CCN(C(=O)N[C@@H]3[C@@H](O[C@@H]4CCN(C(C)C)C4)CCCC3(F)F)CC2)cc1 [Example 67, N-[(1R,6S)-2,2-difluoro-6-{[(3R)-1-(propan-2-yl)pyrrolidin-3-yl]oxy}cyclohexyl]-4-methyl-4-(4-methylphenyl)piperidine-1-carboxamide]
